Reference: paper PMC11929074, “An in vitro platform for the enzymatic characterization of the rhomboid protease RHBDL4” (The Journal of Biological Chemistry, 2025)
*1 amine or outer side, *2 acyl side, *3 side chain or, on linkers, in order; H or OH if unused. Where a SMILES comes first, the peptide text is derived from it. [ ]: non-standard residue; d: D form. The star is where a group is joined. Pheol(OBn) = c1ccc(COC[C@H](Cc2ccccc2)N*)cc1; NH(4-phenylbutyl) = c1ccc(CCCCN*)cc1; X1 = C[C@H](N[*:1])C(=O)C(=O)[*:2]

Assays:
recombinant human RHBDL4 = target: T1, recombinant human RHBDL4 (Homo sapiens, UniProt Q8TEB9); experiment: Inhibition of RHBDL4 proteolysis of IQ6 (FRET-based in vitro assay); format: biochemical; conditions: IQ6 substrate; inhibitor pre-incubated with RHBDL4 for 1 h, then reacted with IQ6 for 2 h; triplicate, average ± S.E.M.
T1 construct: The entire RHBDL4 and RHBDL4-S144A cDNAs were subcloned into the pcDNA3.1 vector; 6xHis (C, cleaved yes); made in house; host or cells: Freestyle 293-F cells (transient transfection, pcDNA3.1-HisA)
T1 sequence (Q8TEB9 1-315): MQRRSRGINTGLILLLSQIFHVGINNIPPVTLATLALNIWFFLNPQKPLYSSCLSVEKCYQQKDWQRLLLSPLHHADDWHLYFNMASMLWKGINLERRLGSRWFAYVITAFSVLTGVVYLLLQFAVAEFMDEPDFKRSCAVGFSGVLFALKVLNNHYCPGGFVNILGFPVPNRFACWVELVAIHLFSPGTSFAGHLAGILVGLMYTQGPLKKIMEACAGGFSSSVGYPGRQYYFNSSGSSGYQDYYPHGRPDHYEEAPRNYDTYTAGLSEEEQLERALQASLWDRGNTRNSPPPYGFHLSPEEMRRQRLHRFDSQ
From the text: (§1) B, schematic representation of the peptidyl-α-ketoamide scaffold with peptide sequence P5-P1 at the nonprime side and hydrophobic substituent (R) at the prime side. C, schematic representation of the peptidyl-α-ketoamide inhibitor, compound 1a/1b. D, representative inhibition curve derived from measuring rates of RHBDL4 proteolysis of the fluorescent substrate IQ6 with increasing concentrations of compound 1a. E, same as (D), except inhibition curve was derived from using increasing concentrations of compound 1b. […] Reactions were quenched with 1 keLaemmli buffer and loaded on 12% SDS-PAGE gel. Post-transfer membranes were visualized using a fluorescence Cy3 filter and by Western blotting using an α-His antibody. For (A, D, and E), all inhibitors were pre-incubated with RHBDL4 for 1 h and allowed to react with the IQ6 substrate for 2 h.
(§2) B, representative inhibition curve derived from measuring rates of RHBDL4 proteolysis of the fluorescent substrate IQ6 with increasing concentrations of compound 3. C, same as (B), except inhibition curve was derived from using increasing concentrations of compound 4. […] Reactions were quenched with 1 RLaemmli buffer and loaded on 12% SDS-PAGE gel. Post-transfer membranes were visualized using a fluorescence Cy3 filter and by Western blotting using an α-His antibody. E, saturation curve of RHBDL4 using fluorescent substrate, KSp207. For (B and C), all inhibitors were pre-incubated with RHBDL4 for 1 h and allowed to react with the IQ6 substrate for 2 h. […] I assigned them to the substrate KSp207, which is named on the x-axis and in the inset table.
The enzymatic assay was performed as previously described (Arutyunova et al., 2014, ([26])). […] The FRET-based cleavage assay was conducted in a fluorescence multiwell plate reader (SynergyMx, BioTek). Upon excitation at 320 nm, the emission intensity at 400 nm was recorded for 2 h at minimal intervals under shaking conditions and plotted using the GraphPad PRISM software. The initial velocities were defined as the slopes of the curve of the generated product as a function of time. The plots of the generated product against the corresponding substrate concentration were fitted with the Michaelis–Menten equation. Catalytic parameters were extrapolated using GraphPad PRISM. […] The samples were desalted using C18 tips (Rainin), eluted in 80% acetonitrile, and dried down in a vacuum centrifuge prior to mass spectrometry analysis.

[1] = tested on: WT RHBDL4 (recombinant, purified); experiment: TAMRA-FP competition labelling on recombinant RHBDL4; format: binding, human; conditions: in-gel Cy3 fluorescence, compared with inactive RHBDL4-S144A control
From the text: as §1, §2

[2] = tested on: RHBDL4-GFP in ER-enriched microsomes of HEK293T cells; experiment: TAMRA-FP competition label assay in ER-enriched microsomes; format: binding, human; conditions: 100 μM compound, 1 h preincubation at 37 °C, then 500 nM TAMRA-FP 2 h at 37 °C; n = 3
Description: Figure 6 RHBDL4 inhibition studies in ER-enriched microsomes ER-enriched microsomes were preincubated with 100 μM of compounds or DMSO vehicle control followed by the addition of 500 nM of TAMRA-FP serine hydrolase probe. RHBDL4-GFP was immunoprecipitated with an α-GFP antibody and loaded on SDS-PAGE. TAMRA-FP labeling was analyzed via Cy3 filter followed by Western blotting using α-GFP antibody, n = 3.
ER-enriched microsomes were obtained by hypotonic swelling and centrifugation from Hek293T cells 24 h after transfection. To this end, cells from a subconfluent 15-cm plate were resuspended in isolation buffer (10 mM Hepes-KOH pH 7.4, 1.5 mM MgCl2, 10 mM KCl, EDTA-free complete protease inhibitor cocktail from Roche). After 10 min incubation at 4 °C, cells were lysed by passing six times through a 27-gauge needle. Cellular debris and nuclei were discarded after centrifugation at 1000g for 5 min at 4 °C. The supernatant was spun at 100,000g for 30 min at 4 °C. The membrane pellet was resuspended in 40 μl RM buffer (50 mM Hepes-KOH pH 7.4, 250 mM sucrose, 50 mM KOAc, 2 mM Mg(OAc)2). […] TAMRA-FP-labeling was analyzed in the wet gel with a green light source (535 nm) and a Cy3 filter by detecting fluorescence emission using ImageQuant 800 Fluor CCD imager (Cytiva) followed by Western blotting using an α-GFP antibody (Roche).

IC50 (recombinant human RHBDL4) | SMILES | competition with TAMRA-FP probe (fluorescent signal) [1] | TAMRA-FP labeling of RHBDL4-GFP [2]
54 ± 13 nM | CSCC[C@H](NC(=O)[C@H](CCC(N)=O)NC(C)=O)C(=O)N[C@@H](CCC(=O)O)C(=O)N[C@@H](CO)C(=O)N[C@@H](C)C(=O)C(=O)NCCCCc1ccccc1 [compound 3] (Ac-QMES[X1]-{NH(4-phenylbutyl)}) | reduction in overall fluorescent signal | reduced
– | CSCC[C@H](NC(=O)[C@H](CCC(N)=O)NC(C)=O)C(=O)N[C@@H](CCC(=O)O)C(=O)N[C@@H](CO)C(=O)N[C@@H](C)C(=O)C(=O)N[C@H](COCc1ccccc1)Cc1ccccc1 [compound 4] (Ac-QMES[X1]-{Pheol(OBn)}) | reduction in overall fluorescent signal | reduced
